Reference: patent US20040209775A1, “Herbicidal composition” (priority 2001, published 2004)

Assays:
Assay in all cases: Post-emergence test, greenhouse
Assay type in all cases: in vivo
[1] = system: Galium aparine; conditions: evaluation 20 days after application
Excerpt: (§1) The herbicidal action to be expected We for a given combination of two herbicides can be calculated as follows (see COLBY, S. R., “Calculating synergistic and antagonistic response of herbicide combinations”, Weeds 15, pages 20-22, 1967):
(§2) Post-emergence application of mixtures of a herbicide of formula I wherein R is CH3; R1 is 4-fluorine; R2 is 3-acetonitrile; and R3 and R4 are hydrogen (=herbicide no. 11) with the co-herbicide dicamba at 500 g/ha and 30 g/ha, respectively, in Table B1, and of a herbicide of formula I wherein R is CH3; R1 is 4-fluorine; R2 is 3-acetonitrile; and R3 and R4 are hydrogen (=herbicide no. I1) with the co-herbicide triasulfuron at 250 g/ha and 3.75 g.ha, respectively, in Table B2.
(§3) The test plants are grown to the 2- to 3-leaf stage in plastics pots under greenhouse conditions. A standard soil is used as cultivation substrate. At the 2- to 3-leaf stage, the herbicides are applied to the test plants on their own and as a mixture. The application is carried out using an aqueous suspension of the test compounds in 500 litres of water/ha. The rates of application depend on the optimum doses ascertained under field conditions and greenhouse conditions. […]

[2] = system: winter wheat
Excerpt: as §1, §2, §3

[3] = system: Raphnus raphanistrum; conditions: I1 500, dicamba 30, mixture 500 + 30 g a.i./ha, evaluation 20 days after application
Procedure: (§4) The herbicidal action to be expected We for a given combination of two herbicides can be calculated as follows (see COLBY, S. R., “Calculating synergistic and antagonistic response of herbicide combinations”, Weeds 15, pages 20-22, 1967): […] Post-emergence application of mixtures of a herbicide of formula I wherein R is CH3; […] R2 is 3-acetonitrile; and R3 and R4 are hydrogen (=herbicide no. […] The test plants are grown to the 2- to 3-leaf stage in plastics pots under greenhouse conditions. A standard soil is used as cultivation substrate. At the 2- to 3-leaf stage, the herbicides are applied to the test plants on their own and as a mixture. The application is carried out using an aqueous suspension of the test compounds in 500 litres of water/ha. The rates of application depend on the optimum doses ascertained under field conditions and greenhouse conditions.

[4] = system: Stellaria media; conditions: I1 500, dicamba 30, mixture 500 + 30 g a.i./ha, evaluation 20 days after application
Procedure: as §4

[5] = system: Veronica persica; conditions: I1 500, dicamba 30, mixture 500 + 30 g a.i./ha, evaluation 20 days after application
Procedure: as §4

[6] = system: Viola tricolor; conditions: I1 500, dicamba 30, mixture 500 + 30 g a.i./ha, evaluation 20 days after application
Procedure: as §4

[7] = system: winter barley; conditions: I1 500, dicamba 30, mixture 500 + 30 g a.i./ha, evaluation 20 days after application
Procedure: as §4

[8] = system: Capsella bursa-pastoris; conditions: I1 250, triasulfuron 3.5, mixture 250 + 3.75 g a.i./ha, evaluation 20 days after application
Excerpt: as §1, §2, §3

[9] = system: Kochia scoparia; conditions: I1 250, triasulfuron 3.5, mixture 250 + 3.75 g a.i./ha, evaluation 20 days after application
Excerpt: as §1, §2, §3

[10] = system: Lamium purpureum; conditions: I1 250, triasulfuron 3.5, mixture 250 + 3.75 g a.i./ha, evaluation 20 days after application
Excerpt: as §1, §2, §3

[11] = system: Matricaria chamomilla; conditions: I1 250, triasulfuron 3.5, mixture 250 + 3.75 g a.i./ha, evaluation 20 days after application
Excerpt: as §1, §2, §3

[12] = system: Polygonum convolvulus; conditions: I1 250, triasulfuron 3.5, mixture 250 + 3.75 g a.i./ha, evaluation 20 days after application
Excerpt: as §1, §2, §3

[13] = system: hard wheat; conditions: I1 250, triasulfuron 3.5, mixture 250 + 3.75 g a.i./ha, evaluation 10 days after application
Excerpt: as §1, §2, §3

Row | Structure (SMILES) | % action, Galium aparine ([1]; I1 500, dicamba 30, mixture 500 + 30 g a.i./ha) [%] | % action, Wheat ([2]; I1 500, dicamba 30, mixture 500 + 30 g a.i./ha, evaluation 20 days after application, 100%=plant has died) [%] | % action, Raphnus raphan. [3] [%] | % action, Stellaria media [4] [%] | % action, Veronica persica [5] [%] | % action, Viola tric. [6] [%] | % action, Barley [7] [%] | % action, Caps. bursa-past. [8] [%] | % action, Gal. apar. ([1]; I1 250, triasulfuron 3.5, mixture 250 + 3.75 g a.i./ha) [%] | % action, Kochia scop. [9] [%] | % action, Lamium purpur. [10] [%] | % action, Matr. cham. [11] [%] | % action, Polyg. conv. [12] [%] | % action, H. wheat [13] [%] | % action, W. wheat ([2]; I1 250, triasulfuron 3.5, mixture 250 + 3.75 g a.i./ha, evaluation 10 days after application) [%]
1 | COc1c(Cl)ccc(Cl)c1C(=O)O [dicamba] | 40 | 0 | 20 | 20 | 20 | 0 | 10 | – | – | – | – | – | – | – | –
2 | COc1nc(C)nc(NC(=O)NS(=O)(=O)c2ccccc2OCCCl)n1 [triasulfuron] | – | – | – | – | – | – | – | 98 | 70 | 95 | 90 | 95 | 80 | 0 | 0
